Assay results as given in patent publication EP2687509A2, “Dicarboxyimides derivatives for use in the treatment of cancer” (Warszawski Uniwersytet Medyczny, priority 2012, dated 2014).
Read-outs that look alike come from different tables or passages of the source.

What was measured:
caspase-3 = details: MOLT-4 cells; 5µM; after 12 hours of incubation; cited from earlier work
caspase-6 = details: MOLT-4 cells; 5µM; after 24 hours of incubation; cited from earlier work
[1] = system: peripheral blood lymphocytes; details: normal cells (peripheral blood lymphocytes); cited from earlier work
[2] = system: tumor cell lines (leukemia, breast cancer, neuroblastoma, colorectal cancer, liver, prostate, lung); details: 13 tested tumor cell lines; cited from earlier work
[3] = higher than for the lead compound amonafide; cited from earlier work
[4] = mouse, in vivo; cited from earlier work
[5] = system: murine leukemia, breast cancer and orthotopic models of non-small cell lung cancer and pancreatic cancer; details: cited from earlier work
HeLa cells = experiment: MTT cytotoxicity assay, HeLa cells; type: cell-based; details: Homo sapiens, 48 h incubation, * = compound precipitated at 1 mM from cell cultures
Description: (§1) A series of dicarboximides derivatives (table 1) was tested for cytotoxic properties against four cell lines. The tests were conducted by means of MTT assay where yellow tetrazole salt was processed by the dehydrogenases in mitochondria of live cells into violet formazan. The following cell lines were used:
- HeLa cells (uterine cervix cancer)
(§2) 1. HeLa, K562, HL60, HUVEC cells in an amount of 7 thousand cells / well (in 200 µL medium) were seeded in 96-well plates. Cells were incubated overnight in an incubator (37°C, 5% CO2)
(§3) 2. Test compounds were dissolved in DMSO and added in an amount of 2µL to the surface of the cells to give the following final concentrations in the cell culture (1 mM, 10 µm, 100 nM, 1 nM). As a control, cells exposed to 1% DMSO were used.
(§4) 3. Cytotoxicity of the test compounds was evaluated by MTT test. After 48-hour incubation of HeLa, K562, HL60 or HUVEC cells with the test compounds, MTT (5mg/mL) was added in an amount of 25µL/well. MTT, a yellow tetrazolium salt was reduced to purple formazan by mitochondrial dehydrogenases of living cells. The amount of formazan could be determined spectrophotometrically and was proportional to the number of live cells. Cells were incubated with MTT for 2 hours in an incubator (37°C, 5% CO2). Next, lysis buffer containing SDS and DMF was added (95µL/well) to each well and incubated overnight at 37°C, 5% CO2.
(§5) 4. The plates were analyzed by reading the absorbance at a wavelength of 570 nm and 650 nm using the plate-reader Fluostar Omega. The measured absorbance at 570 nm is proportional to the number of living cells. IC50 values (concentration of compound causing 50% cell mortality) were read from the charts by interpolation to 50% cell survival.

K562 cells [6] = experiment: MTT cytotoxicity assay, K562 cells; type: cell-based, human; details: 48 h incubation, * = compound precipitated at 1 mM from cell cultures
Description: as §1
- K562 cells (human chronic myelogenous leukaemia) and
as §2, §3, §4, §5

HUVEC cells = experiment: MTT cytotoxicity assay, HUVEC cells; type: cell-based; details: Homo sapiens, 48 h incubation, * = compound precipitated at 1 mM from cell cultures
Description: as §1
- HUVEC cells (normal human endothelial cells).
as §2, §3, §4, §5

caspase 3 and 7 = experiment: Apo-ONE Homogeneous Caspase-3/7 Assay in K562 cells; type: cell-based, human; details: for activity of caspase 3 and 7: 5 x IC50 (a5: 10 µM), 18 hours, compared with K562 and K562+DMSO, Fig. 1
Description: The observed cytotoxicity of compounds a3-7 was tested for its origin, i.e. induction of necrosis or apoptosis in the K562 cells of chronic myelogenous leukaemia.
K562 cells in RPMI 1640 medium containing 10% fetal calf serum and antibiotics were seeded on 96-well plate in an amount of 20x10^3 cells / well. Cells were cultured for 24 hours in an incubator (5% CO2, 37°C).
Compounds a3-a7 were dissolved in DMSO and added to the cell medium; final concentration in the cell culture was 5 x IC50. Cells cultured in the presence of 1% DMSO served as a negative control. Cells grown in the presence of 1 µM staurosporin (a strong inducer of apoptosis) served as a positive control. […]
The activity of caspase 3 and 7 was determined by means of Apo-ONE® Homogeneous Caspase-3/7 Assay (Promega, Madison, WI, USA), in compliance with manufacturer's guidelines. Cells were lysed and incubated with a profluorescent substrate for caspases for 1.5 hours at room temperature. Due to proteolytic activity of caspases, the profluorescent substrate was converted into a fluorescent product the amount of which could be determined by measurement of fluorescence intensity.
The fluorescence intensity in each well was measured using a plate reader Fluostar Omega (BMG-Labtech, Germany) at an excitation wavelength of 485 nm and emission 520 nm. The intensity of fluorescence is proportional to the activity of caspase 3 and 7 in the sample.

HL60 cells = experiment: MTT cytotoxicity assay, HL60 cells; type: cell-based; details: Homo sapiens, HL-60, 48 h, 48 h incubation
Description: as §1
- HL60 cells (human acute myelogenous leukaemia)
as §2, §3, §4, §5

K562 cells [7] = details: against K562 cells; for comparison; cited from earlier work
[8] = * = compound precipitated at 1 mM from cell cultures

Compound | IC50 (HeLa cells) [µM] | IC50 (K562 cells [6]) [µM] | IC50 (HUVEC cells) [µM] | activity of caspase 3 and 7 (caspase 3 and 7) | IC50 (HL60 cells) [µM] | IC50 (HL60 cells; [8]) [µM] | IC50 (K562 cells [6]; Homo sapiens, K562, 48 h) [µM] | other results
O=C1c2cccc3c([N+](=O)[O-])ccc(c23)C(=O)N1CCCO [6-nitro-2-(3-hydroxypropyl)-1H-benz[de]izoquinolino-1,3-dione] |  |  |  |  |  |  |  | caspase-3 activity (caspase-3): significant increase; caspase-6 activity (caspase-6): significant increase; IC50 [1]: 273 µM; tested tumor cell lines to which the compound was toxic [2]: 8 of 13
CN(C)CCN1C(=O)c2cccc3cc(NC(=O)NC(=O)C(Cl)(Cl)Cl)cc(c23)C1=O [UNBS3157, 2,2,2-trichloro-N-({2-[2-(dimethylamino)ethyl]-1,3-dioxo-2,3-dihydro-1H-benzo[de]izoquinolino-5-ylo}carbamoylo)acetamide] |  |  |  |  |  |  |  | maximum tolerated dose relative to amonafide [3]: about 4 x; haemotoxicity [4]: no haemotoxicity; activity in in vivo models compared to amonafide [5]: enhanced activity
CCC12C(=O)C(CC)(C(c3ccccc3)=C1c1ccccc1)C1C(=O)N(CCN(C)C)C(=O)C12 (stereo not shown) [a3] | > 1000 | 10 | > 1000 | do not increase | 1 to 10 | > 1000 |  | 
CCN(CC)CCN1C(=O)C2C(C1=O)C1(CC)C(=O)C2(CC)C(c2ccccc2)=C1c1ccccc1 (stereo not shown) [a4] | > 1000 | 4.5 | > 1000 | do not increase | 1 to 10 | > 1000 |  | 
CCC12C(=O)C(CC)(C(c3ccccc3)=C1c1ccccc1)C1C(=O)N(CCN3CCCCC3)C(=O)C12 (stereo not shown) [a5] | > 1000 | 2 | > 1000 | increased | 1 to 10 | > 1000 | 1 to 10 | activity of caspases 3 and 7 (caspase 3 and 7; a5 concentration = 10 µM, incubation time = 24h): increased
CCC12C(=O)C(CC)(C(c3ccccc3)=C1c1ccccc1)C1C(=O)N(CCCN(C)C)C(=O)C12 (stereo not shown) [a6] | > 1000 | 8 | > 1000 | do not increase | 1 to 10 | > 1000 |  | 
CC(C)NCC(O)CN1C(=O)C2C(C1=O)C1(c3ccccc3)C(=O)C2(c2ccccc2)C(c2ccccc2)=C1c1ccccc1 (stereo not shown) [a13] | 1 |  | 2 |  |  |  | 0.9 | 
CN(C)CC(O)CN1C(=O)C2C(C1=O)C1(c3ccccc3)C(=O)C2(c2ccccc2)C(c2ccccc2)=C1c1ccccc1 (stereo not shown) [a14] | 1 |  | 2 |  |  |  | 0.9 | 
CC1=CC2(C)CC(C)(C)C1C1C(=O)N(CCN(C)C)C(=O)C12 (stereo not shown) [b11] | 90 |  | 300 |  |  |  | 100 | 
CC1=CC2(C)CC(C)(C)C1C1C(=O)N(CCN3CCOCC3)C(=O)C12 (stereo not shown) [b13] | 90 |  | 100 |  |  |  | 90 | 
CC1=CC2(C)CC(C)(C)C1C1C(=O)N(CCCN(C)C)C(=O)C12 (stereo not shown) [b15] | 100 |  | 700 |  |  |  | 90 | 
CCOC(=O)C1CC2C(=O)CC1(C)C1C(=O)N(CCN(C)C)C(=O)C21 (stereo not shown) [c6] | 100 |  | > 1000 |  |  |  | > 1000 | 
N.N.[Cl][Pt][Cl] [cis-platinum] |  |  |  |  |  |  |  | IC50 (K562 cells [7]): several to several dozens
